Test results reported in US8192962B2, “Processes for detecting toxic substances” (Daikin Industries, Ltd., priority 2001, dated 2012).

Test system: Unknown protein yeast genes
Assay: DNA chip mRNA expression in yeast, unknown protein yeast genes (Table 1)
Assay type: cell-based, Saccharomyces cerevisiae S288C
Description: Yeast (Saccharomyces cerevisiae S288C (α SUC2mal mel gap2 CUP1)) were incubated at 25° C. on YPD medium (yeast extract 1%, polypepton 2%, glucose 2%). One of toxic chemical substances was added to the cells at logarithmic growth phase, and the cells were further incubated for two hours. Cells were cultured without any chemical substance in the same condition, and were used as control. Concentrations of the chemical substances were defined to inhibit the growth of the yeast but not lead to death.
After completion of the incubation, the culture was centrifuged to collect the cells. To the cells, sodium acetate buffer (50 mM sodium acetate, 10 mM EDTA, 1% SDS) was added, and the mixture was shaken at 65° C. for five minutes, followed by returning to room temperature, and obtaining the supernatant, of which the procedures were repeated two times. To the supernatant, ½ amount of a solution of phenol/chloroform was added, and the mixture was centrifuged to give a supernatant, which was added with an equal amount of chloroform, and the mixture was centrifuged to give a supernatant. To the supernatant, an equal amount of isopropanol containing 0.3 M sodium acetate was added, and the mixture was allowed to stand at room temperature for 30 minutes, after which the mixture was centrifuged to give a sediment of the whole RNAs. Seventy % ethanol was added to the sediment, and the mixture was again centrifuged to give a sediment, which was then dried and dissolved in water. mRNA was isolated from the whole RNAs as followings. In view of the fact that a poly A chain is attached to the 3′ terminus of mRNA, a polynucleotide having a poly T structure which was immobilized on the surface of latex beads was used to trap the mRNA, and then the mRNA was washed and eluted with spine column (Oligotex-dT30<Super>mRNA Purification Kit, Takara). Reverse transcription of the mRNA was conducted with a reverse transcriptase (Super Script II Reverse Transcriptase; catalogue No. 18064-014, GibcoBRL) using fluorescence-labeled nucleotides to give cDNAs that were introduced with Cy3-dUTP or Cy5-dUTP during the reverse transcription.
The labeled cDNAs were dissolved in TE buffer (10mM Tris-HCl/1 mM EDTA, pH8.0), and the solution was dropped on the DNA chip containing the whole genes of yeast (DNA Chip Research Inc. Japan) so that the cDNAs were hybridized on the DNA chip at 65° C. for over 12 hours. The fluoresces intensity of the DNA chip was read with a scanner, and the ratio relative to the fluorescence intensity resulting from the absence of chemical substance was estimated as the following, which is shown in Tables 1 to 9: […]

manganese ethylenebis(dithiocarbamate) [(8)]
The level of expressed mRNA in the presence of chemical substance/The level of expressed mRNA in the absence of chemical substance (yeast gene YKL195W, incubated two hours with chemical substance): 1.2 | The level of expressed mRNA in the presence of chemical substance/The level of expressed mRNA in the absence of chemical substance (yeast gene YKR091W, incubated two hours with chemical substance): 1.3 | The level of expressed mRNA in the presence of chemical substance/The level of expressed mRNA in the absence of chemical substance (yeast gene YLR054C, incubated two hours with chemical substance): 1.1 | The level of expressed mRNA in the presence of chemical substance/The level of expressed mRNA in the absence of chemical substance (yeast gene YLR149C, incubated two hours with chemical substance): 1.1 | The level of expressed mRNA in the presence of chemical substance/The level of expressed mRNA in the absence of chemical substance (yeast gene YLR152C, incubated two hours with chemical substance): 1.2 | The level of expressed mRNA in the presence of chemical substance/The level of expressed mRNA in the absence of chemical substance (yeast gene YLR194C, incubated two hours with chemical substance): 1.0 | The level of expressed mRNA in the presence of chemical substance/The level of expressed mRNA in the absence of chemical substance (yeast gene YLR324W, incubated two hours with chemical substance): 1.0 | The level of expressed mRNA in the presence of chemical substance/The level of expressed mRNA in the absence of chemical substance (yeast gene YLR350W, incubated two hours with chemical substance): 1.0 | The level of expressed mRNA in the presence of chemical substance/The level of expressed mRNA in the absence of chemical substance (yeast gene YLR387C, incubated two hours with chemical substance): 1.4 | The level of expressed mRNA in the presence of chemical substance/The level of expressed mRNA in the absence of chemical substance (yeast gene YLR460C): 8.1 | The level of expressed mRNA in the presence of chemical substance/The level of expressed mRNA in the absence of chemical substance (yeast gene YML117W, incubated two hours with chemical substance): 0.7 | The level of expressed mRNA in the presence of chemical substance/The level of expressed mRNA in the absence of chemical substance (yeast gene YMR009W, incubated two hours with chemical substance): 1.4 | The level of expressed mRNA in the presence of chemical substance/The level of expressed mRNA in the absence of chemical substance (yeast gene YMR067C, incubated two hours with chemical substance): 1.1 | The level of expressed mRNA in the presence of chemical substance/The level of expressed mRNA in the absence of chemical substance (yeast gene YMR090W): 3.9 | The level of expressed mRNA in the presence of chemical substance/The level of expressed mRNA in the absence of chemical substance (yeast gene YMR095C, incubated two hours with chemical substance): 1.2 | The level of expressed mRNA in the presence of chemical substance/The level of expressed mRNA in the absence of chemical substance (yeast gene YMR097C, incubated two hours with chemical substance): 1.5 | The level of expressed mRNA in the presence of chemical substance/The level of expressed mRNA in the absence of chemical substance (yeast gene YMR102C, incubated two hours with chemical substance): 1.0 | The level of expressed mRNA in the presence of chemical substance/The level of expressed mRNA in the absence of chemical substance (yeast gene YMR107W, incubated two hours with chemical substance): 1.3 | The level of expressed mRNA in the presence of chemical substance/The level of expressed mRNA in the absence of chemical substance (yeast gene YMR180C, incubated two hours with chemical substance): 1.8 | The level of expressed mRNA in the presence of chemical substance/The level of expressed mRNA in the absence of chemical substance (yeast gene YMR184W, incubated two hours with chemical substance): 1.9 | The level of expressed mRNA in the presence of chemical substance/The level of expressed mRNA in the absence of chemical substance (yeast gene YMR191W, incubated two hours with chemical substance): 1.1 | The level of expressed mRNA in the presence of chemical substance/The level of expressed mRNA in the absence of chemical substance (yeast gene YMR295C, incubated two hours with chemical substance): 1.0 | The level of expressed mRNA in the presence of chemical substance/The level of expressed mRNA in the absence of chemical substance (yeast gene YMR316W, incubated two hours with chemical substance): 1.6 | The level of expressed mRNA in the presence of chemical substance/The level of expressed mRNA in the absence of chemical substance (yeast gene YNL044W, incubated two hours with chemical substance): 1.8 | The level of expressed mRNA in the presence of chemical substance/The level of expressed mRNA in the absence of chemical substance (yeast gene YNL074C, incubated two hours with chemical substance): 0.6 | The level of expressed mRNA in the presence of chemical substance/The level of expressed mRNA in the absence of chemical substance (yeast gene YNL092W, incubated two hours with chemical substance): 0.9 | The level of expressed mRNA in the presence of chemical substance/The level of expressed mRNA in the absence of chemical substance (yeast gene YNL115C, incubated two hours with chemical substance): 0.8 | The level of expressed mRNA in the presence of chemical substance/The level of expressed mRNA in the absence of chemical substance (yeast gene YNL156C, incubated two hours with chemical substance): 1.2 | The level of expressed mRNA in the presence of chemical substance/The level of expressed mRNA in the absence of chemical substance (yeast gene YNL234W, incubated two hours with chemical substance): 1.3 | The level of expressed mRNA in the presence of chemical substance/The level of expressed mRNA in the absence of chemical substance (yeast gene YNL281W, incubated two hours with chemical substance): 1.2 | The level of expressed mRNA in the presence of chemical substance/The level of expressed mRNA in the absence of chemical substance (yeast gene YNL305C, incubated two hours with chemical substance): 0.7 | The level of expressed mRNA in the presence of chemical substance/The level of expressed mRNA in the absence of chemical substance (yeast gene YNR068C, incubated two hours with chemical substance): 1.1 | The level of expressed mRNA in the presence of chemical substance/The level of expressed mRNA in the absence of chemical substance (yeast gene YOL032W, incubated two hours with chemical substance): 1.5 | The level of expressed mRNA in the presence of chemical substance/The level of expressed mRNA in the absence of chemical substance (yeast gene YOL036W, incubated two hours with chemical substance): 0.8 | The level of expressed mRNA in the presence of chemical substance/The level of expressed mRNA in the absence of chemical substance (yeast gene YOL047C, incubated two hours with chemical substance): 1.1 | The level of expressed mRNA in the presence of chemical substance/The level of expressed mRNA in the absence of chemical substance (yeast gene YOL071W, incubated two hours with chemical substance): 1.6 | The level of expressed mRNA in the presence of chemical substance/The level of expressed mRNA in the absence of chemical substance (yeast gene YOL082W, incubated two hours with chemical substance): 1.1 | The level of expressed mRNA in the presence of chemical substance/The level of expressed mRNA in the absence of chemical substance (yeast gene YOL083W, incubated two hours with chemical substance): 1.3 | The level of expressed mRNA in the presence of chemical substance/The level of expressed mRNA in the absence of chemical substance (yeast gene YOL117W, incubated two hours with chemical substance): 1.1 | The level of expressed mRNA in the presence of chemical substance/The level of expressed mRNA in the absence of chemical substance (yeast gene YOL131W, incubated two hours with chemical substance): 1.1 | The level of expressed mRNA in the presence of chemical substance/The level of expressed mRNA in the absence of chemical substance (yeast gene YOL150C): 3.7 | The level of expressed mRNA in the presence of chemical substance/The level of expressed mRNA in the absence of chemical substance (yeast gene YOL162W, incubated two hours with chemical substance): 1.6 | The level of expressed mRNA in the presence of chemical substance/The level of expressed mRNA in the absence of chemical substance (yeast gene YOR019W, incubated two hours with chemical substance): 1.1 | The level of expressed mRNA in the presence of chemical substance/The level of expressed mRNA in the absence of chemical substance (yeast gene YOR197W, incubated two hours with chemical substance): 0.9 | The level of expressed mRNA in the presence of chemical substance/The level of expressed mRNA in the absence of chemical substance (yeast gene YPL087W, incubated two hours with chemical substance): 1.0 | The level of expressed mRNA in the presence of chemical substance/The level of expressed mRNA in the absence of chemical substance (yeast gene YPL196W, incubated two hours with chemical substance): 1.2 | The level of expressed mRNA in the presence of chemical substance/The level of expressed mRNA in the absence of chemical substance (yeast gene YPL206C, incubated two hours with chemical substance): 1.0 | The level of expressed mRNA in the presence of chemical substance/The level of expressed mRNA in the absence of chemical substance (yeast gene YPL222W, incubated two hours with chemical substance): 0.7 | The level of expressed mRNA in the presence of chemical substance/The level of expressed mRNA in the absence of chemical substance (yeast gene YPR023C, incubated two hours with chemical substance): 0.9 | The level of expressed mRNA in the presence of chemical substance/The level of expressed mRNA in the absence of chemical substance (yeast gene YPR151C, incubated two hours with chemical substance): 1.4
